{"source": "ChEMBL document CHEMBL4476885", "about": "“Multisubstituted 4h-thiazolo[4,5-e][1,4]diazepine-5,8-dione derivative and use thereof” (2017)"}
{"tested_on": "Mus musculus", "test": "Antiinflammatory activity in iv dosed ICR mouse model of CLP-induced sepsis assessed as increase in survival rate", "type": "functional", "units": {"Activity": "%"}}
{"smiles": "CCCCNc1nc2c(s1)C(=O)N(Cc1ccccc1)CC(=O)N2", "Activity": 40}
{"smiles": "COc1ccc(CNc2nc3c(s2)C(=O)N2CCCC2C(=O)N3)cc1", "note": "(stereo not drawn)", "Activity": 40}
{"smiles": "O=C1Nc2nc(N3CCOCC3)sc2C(=O)N2CCCC12", "note": "(stereo not drawn)", "Activity": 40}
{"smiles": "CCCSc1nc2c(s1)C(=O)N1CCCCC1C(=O)N2", "note": "(stereo not drawn)", "Activity": 40}
{"smiles": "O=C1C2CCCN2C(=O)c2sc(N3CCCCC3)nc2N1Cc1ccccc1", "note": "(stereo not drawn)", "Activity": 40}
{"smiles": "CN1C(=O)C2CCCCN2C(=O)c2sc(Sc3ccccc3)nc21", "note": "(stereo not drawn)", "Activity": 60}
{"smiles": "COc1ccc(CNc2nc3c(s2)C(=O)N(C)CC(=O)N3Cc2ccccc2)cc1", "Activity": 40}
{"smiles": "CCN1C(=O)C2CCCN2C(=O)c2sc(NCc3ccc(OC)cc3)nc21", "note": "(stereo not drawn)", "Activity": 40}
